According to patent publication US20250223268A1, “4-Methylsulfonylbenzamide Compound, Preparation Method, Herbicidal Composition And Use” (Jiangsu Flag Chemical Industry Co., Ltd., priority 2022, published 2025):

Columns and labels:
Format in all cases: in vivo
[1] = test system: Oryza sativa subsp. indica; test: Greenhouse herbicidal activity and crop safety comparison (Test Example 2)
Excerpt: (§1) Pre-emergence: Seeds of gramineous weeds (Echinochloa crusgalli, Echinochloa crusgalli var. zelayensis, Echinochloa phyllopogon, Eleusine indica, Digitaria sanguinalis, Leptochloa chinensis, Setaria viridis, Alopecurus japonicus Steud, Beckmannia syzigachne, Polypogon fugax, Alopecurus aequalis, Lolium multiflorum, Poa annua, Aegilops tataschii, Avena fatua, Alopecurus myosuroides, Bromus japonicus), broadleaf weeds (Eclipta prostrata, Amaranthus retroflexus, Rorippa indica, Myosoton aquaticum, Veronica didyma, Galium aparine, Solanum nigrum, Xanthium sibiricum, Conyza canadensis, Sesbania cannabina, Sagittaria trifolia), and Cyperus iria (Cyperus iria, Scirpus juncoides, Cyperus difformis, etc.) were sown in plastic pots (7 cm diameter) with nutrient soil and bottom holes. Crop seeds (including Oryza sativa subsp. indica, Oryza sativa subsp. japonica, Oryza sativa L. var. Glutinosa matsum, Triticum aestivum, Zea mays, Sorghum bicolor, Setaria italica, Glycine max, Gossypium hirsutum, Brassica napus, Arachis hypogaea) were sown in plastic pots (10 cm diameter) with nutrient soil and bottom holes. After sowing, the seeds were lightly covered with soil, and the soil was moistened via bottom water absorption. The pots were placed in a constant-temperature light-controlled growth chamber for 24 hours before soil spraying. Spraying was performed using a 3WP-2000 walking-type spray tower (produced by the Nanjing Agricultural Mechanization Institute, Ministry of Agriculture) with a spindle speed of 96 mm/r, spray height of 300 mm, effective spray width of 350 mm, spray area of 0.35 m^2, and nozzle flow rate of 390 mL/min.
(§2) After treatment, the test materials were air-dried naturally in the laboratory and then transferred to the growth chamber. Results were assessed 14-30 days later.
(§3) Post-emergence: Seeds of gramineous weeds (Echinochloa crusgalli, Echinochloa crusgalli var. zelayensis, Echinochloa phyllopogon, Eleusine indica, Digitaria sanguinalis, Leptochloa chinensis, Setaria viridis, Alopecurus japonicus Steud, Beckmannia syzigachne, Polypogon fugax, Alopecurus aequalis, Lolium multiflorum, Poa annua, Aegilops tataschii, Avena fatua, Alopecurus myosuroides, Bromus japonicus), broadleaf weeds (Eclipta prostrata, Amaranthus retroflexus, Rorippa indica, Myosoton aquaticum, Veronica didyma, Galium aparine, Solanum nigrum, Xanthium sibiricum, Conyza canadensis, Sesbania cannabina, Sagittaria trifolia), and Cyperus iria (Cyperus iria, Scirpus juncoides, Cyperus difformis, etc.) were sown in plastic pots (7 cm diameter) with nutrient soil and bottom holes. Crop seeds (including Oryza sativa subsp. indica, Oryza sativa subsp. japonica, Oryza sativa L. var. Glutinosa matsum, Triticum aestivum, Zea mays, Sorghum bicolor, Setaria italica, Glycine max, Gossypium hirsutum, Brassica napus, Arachis hypogaea) were sown in plastic pots (10 cm diameter) with nutrient soil and bottom holes. After sowing, the pots were placed in the growth chamber until the plants reached the 3-6 leaf stage for foliar spraying. Post-treatment, the materials were air-dried naturally and returned to the growth chamber. Results were assessed 14-21 days later.
(§4) • A: Fresh weight inhibition rate≥80% to 100%; • B: Fresh weight inhibition rate[…] to <80%; • C: Fresh weight inhibition rate≥40% to <60%; • D: Fresh weight inhibition rate≥20% to <40%; • E: Fresh weight inhibition rate<20%; • NT: Not tested.
(§5) Using the above method, the herbicidal activity and crop safety of the present compounds were compared with structurally similar known compounds (CK1, CK2, CK3, CK4: compounds 4-756, 4-759, 1-557, 1-563 from WO2012028579A1; CK5: compound 290-1 from WO2013087577A1; CK6: compound 1-129 from WO2011035874A1).

Echinochloa crusgalli [2] = test: as above; conditions: for inhibition at 75 g/ha: Rate 75 g/ha; for inhibition at 150 g/ha / Echinochloa crusgalli, control efficacy grading (fresh weight inhibition rate): Rate 150 g/ha
Excerpt: as §1, §2, §3, §4, §5

[3] = test system: Oryza sativa subsp. japonica; test: as above
Excerpt: as §1, §2, §3, §4, §5

Echinochloa crusgalli [4] = test: Greenhouse herbicidal activity assay, post-emergence; conditions: Post-emergence test, rate 150 g a.i./hm^2, grade by fresh weight inhibition rate
In short: (§6)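 Scores reflect fresh weight inhibition assessed 14-21 days after treatment, with grade A meaning ≥80% to 100% and grade E meaning <20%. Plants, raised in nutrient-soil pots inside a growth chamber, were sprayed on the foliage at the 3-6 leaf stage.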

Cyperus iria = test: as above; conditions: Post-emergence test, rate 150 g a.i./hm^2, grade by fresh weight inhibition rate
In short: as §6

Leptochloa chinensis = test: as above; conditions: Post-emergence test, rate 150 g a.i./hm^2, grade by fresh weight inhibition rate
In short: as §6

Digitaria sanguinalis = test: as above; conditions: Post-emergence test, rate 150 g a.i./hm^2, grade by fresh weight inhibition rate
In short: as §6

Eclipta prostrata = test: as above; conditions: Post-emergence test, rate 150 g a.i./hm^2, grade by fresh weight inhibition rate
In short: as §6

[5] = Echinochloa crus-galli, read-out: Echinochloa crusgalli, control efficacy grading (fresh weight inhibition rate)

SMILES: Cc1nnc(N(C)C(=O)c2ccc(S(C)(=O)=O)c([S+](C)[O-])c2Cl)o1 (stereo not shown) [CK5, reference compound]
- Oryza sativa subsp. indica, grading of fresh weight inhibition rate (crop safety) ([1]; Rate 18.75 g/ha): E (Fresh weight inhibition rate<20%)
- Oryza sativa subsp. indica, grading of fresh weight inhibition rate (crop safety) ([1]; Rate 75 g/ha): E (Fresh weight inhibition rate<20%)
- Oryza sativa subsp. indica, grading of fresh weight inhibition rate (crop safety) ([1]; Rate 150 g/ha): D (Fresh weight inhibition rate≥20% to <40%)
- inhibition at 18.75 g/ha (Echinochloa crusgalli [2]; Echinochloa crus-galli, Rate 18.75 g/ha, read-out: Echinochloa crusgalli, control efficacy grading (fresh weight inhibition rate)): < 20%
- inhibition at 75 g/ha (Echinochloa crusgalli [2]; [5]): < 20%
- inhibition at 150 g/ha (Echinochloa crusgalli [2]; [5]): 20 to 40%
- Oryza sativa subsp. japonica, grading of fresh weight inhibition rate (crop safety) ([3]; Rate 18.75 g/ha): E (Fresh weight inhibition rate<20%)
- Oryza sativa subsp. japonica, grading of fresh weight inhibition rate (crop safety) ([3]; Rate 75 g/ha): E (Fresh weight inhibition rate<20%)
- Oryza sativa subsp. japonica, grading of fresh weight inhibition rate (crop safety) ([3]; Rate 150 g/ha): E (Fresh weight inhibition rate<20%)

SMILES: CCC[S+]([O-])c1c(S(C)(=O)=O)ccc(C(=O)N(C)c2nnc(CC)o2)c1Cl (racemic) [Compound 3-798]
- Oryza sativa subsp. indica, grading of fresh weight inhibition rate (crop safety) ([1]; Rate 150 g/ha): E (Fresh weight inhibition rate<20%)
- Echinochloa crusgalli, control efficacy grading (fresh weight inhibition rate) (Echinochloa crusgalli [2]): A (Fresh weight inhibition rate≥80% to 100%)
- Oryza sativa subsp. japonica, grading of fresh weight inhibition rate (crop safety) ([3]; Rate 150 g/ha): E (Fresh weight inhibition rate<20%)
- Control efficacy grade, Echinochloa crusgalli (Echinochloa crusgalli [4]): A (Fresh weight inhibition rate≥80% to 100%)

SMILES: Cn1nnnc1NC(=O)c1ccc(S(C)(=O)=O)c(S(C)(=O)=O)c1Cl [CK1, reference compound]
- Oryza sativa subsp. indica, grading of fresh weight inhibition rate (crop safety) ([1]; Rate 18.75 g/ha): C (Fresh weight inhibition rate≥40% to <60%)
- Oryza sativa subsp. indica, grading of fresh weight inhibition rate (crop safety) ([1]; Rate 75 g/ha): C (Fresh weight inhibition rate≥40% to <60%)
- Oryza sativa subsp. indica, grading of fresh weight inhibition rate (crop safety) ([1]; Rate 150 g/ha): B (Fresh weight inhibition rate≥260% to <80%)
- inhibition at 75 g/ha (Echinochloa crusgalli [2]; [5]): 80 to 100%
- inhibition at 150 g/ha (Echinochloa crusgalli [2]; [5]): 80 to 100%
- Oryza sativa subsp. japonica, grading of fresh weight inhibition rate (crop safety) ([3]; Rate 18.75 g/ha): C (Fresh weight inhibition rate≥40% to <60%)
- Oryza sativa subsp. japonica, grading of fresh weight inhibition rate (crop safety) ([3]; Rate 75 g/ha): C (Fresh weight inhibition rate≥40% to <60%)
- Oryza sativa subsp. japonica, grading of fresh weight inhibition rate (crop safety) ([3]; Rate 150 g/ha): B (Fresh weight inhibition rate≥260% to <80%)

SMILES: CCCS(=O)(=O)c1c(S(C)(=O)=O)ccc(C(=O)Nc2nnnn2CC)c1Cl [Compound 1-91]
- Oryza sativa subsp. indica, grading of fresh weight inhibition rate (crop safety) ([1]; Rate 150 g/ha): E (Fresh weight inhibition rate<20%)
- Echinochloa crusgalli, control efficacy grading (fresh weight inhibition rate) (Echinochloa crusgalli [2]): A (Fresh weight inhibition rate≥80% to 100%)
- Oryza sativa subsp. japonica, grading of fresh weight inhibition rate (crop safety) ([3]; Rate 150 g/ha): E (Fresh weight inhibition rate<20%)

SMILES: CC(C)[S+]([O-])c1c(S(C)(=O)=O)ccc(C(=O)N(C)c2nnco2)c1Cl (racemic) [Compound 3-804]
- Oryza sativa subsp. indica, grading of fresh weight inhibition rate (crop safety) ([1]; Rate 150 g/ha): E (Fresh weight inhibition rate<20%)
- Oryza sativa subsp. japonica, grading of fresh weight inhibition rate (crop safety) ([3]; Rate 150 g/ha): E (Fresh weight inhibition rate<20%)
- Control efficacy grade, Echinochloa crusgalli (Echinochloa crusgalli [4]): A (Fresh weight inhibition rate≥80% to 100%)

SMILES: CCc1nnc(N(C)C(=O)c2ccc(S(C)(=O)=O)c([S+]([O-])C(C)C)c2Cl)o1 (racemic) [Compound 3-810]
- Oryza sativa subsp. indica, grading of fresh weight inhibition rate (crop safety) ([1]; Rate 150 g/ha): E (Fresh weight inhibition rate<20%)
- Oryza sativa subsp. japonica, grading of fresh weight inhibition rate (crop safety) ([3]; Rate 150 g/ha): E (Fresh weight inhibition rate<20%)
- Control efficacy grade, Echinochloa crusgalli (Echinochloa crusgalli [4]): B (Fresh weight inhibition rate≥260% to <80%)

SMILES: CCn1nnnc1NC(=O)c1ccc(S(C)(=O)=O)c(S(=O)(=O)C(C)C)c1Cl [Compound 1-96, 2-chloro-N-(1-ethyl-1H-tetrazol-5-yl)-3-(isopropylsulfonyl)-4-(methylsulfonyl)benzamide]
- Oryza sativa subsp. indica, grading of fresh weight inhibition rate (crop safety) ([1]; Rate 150 g/ha): E (Fresh weight inhibition rate<20%)
- inhibition at 150 g/ha (Echinochloa crusgalli [2]; [5]): 80 to 100%
- Oryza sativa subsp. japonica, grading of fresh weight inhibition rate (crop safety) ([3]; Rate 150 g/ha): E (Fresh weight inhibition rate<20%)

SMILES: CCS(=O)(=O)c1c(S(C)(=O)=O)ccc(C(=O)Nc2nnnn2C)c1Cl [CK2, reference compound]
- Oryza sativa subsp. indica, grading of fresh weight inhibition rate (crop safety) ([1]; Rate 18.75 g/ha): C (Fresh weight inhibition rate≥40% to <60%)
- Oryza sativa subsp. indica, grading of fresh weight inhibition rate (crop safety) ([1]; Rate 75 g/ha): C (Fresh weight inhibition rate≥40% to <60%)
- Oryza sativa subsp. indica, grading of fresh weight inhibition rate (crop safety) ([1]; Rate 150 g/ha): B (Fresh weight inhibition rate≥260% to <80%)
- inhibition at 75 g/ha (Echinochloa crusgalli [2]; [5]): 80 to 100%
- inhibition at 150 g/ha (Echinochloa crusgalli [2]; [5]): 80 to 100%
- Oryza sativa subsp. japonica, grading of fresh weight inhibition rate (crop safety) ([3]; Rate 18.75 g/ha): C (Fresh weight inhibition rate≥40% to <60%)
- Oryza sativa subsp. japonica, grading of fresh weight inhibition rate (crop safety) ([3]; Rate 75 g/ha): C (Fresh weight inhibition rate≥40% to <60%)
- Oryza sativa subsp. japonica, grading of fresh weight inhibition rate (crop safety) ([3]; Rate 150 g/ha): B (Fresh weight inhibition rate≥260% to <80%)

SMILES: Cc1nnc(N(C)C(=O)c2ccc(S(C)(=O)=O)c([S+]([O-])C(C)C)c2Cl)o1 (racemic) [Compound 3-807]
- Oryza sativa subsp. indica, grading of fresh weight inhibition rate (crop safety) ([1]; Rate 75 g/ha): E (Fresh weight inhibition rate<20%)
- Oryza sativa subsp. indica, grading of fresh weight inhibition rate (crop safety) ([1]; Rate 150 g/ha): E (Fresh weight inhibition rate<20%)
- Oryza sativa subsp. japonica, grading of fresh weight inhibition rate (crop safety) ([3]; Rate 75 g/ha): E (Fresh weight inhibition rate<20%)
- Oryza sativa subsp. japonica, grading of fresh weight inhibition rate (crop safety) ([3]; Rate 150 g/ha): E (Fresh weight inhibition rate<20%)
- Control efficacy grade, Echinochloa crusgalli (Echinochloa crusgalli [4]): A (Fresh weight inhibition rate≥80% to 100%)

SMILES: CCC[S+]([O-])c1c(S(C)(=O)=O)ccc(C(=O)N(C)c2nnc(C(C)C)o2)c1Cl (racemic) [Compound 3-801]
- Oryza sativa subsp. indica, grading of fresh weight inhibition rate (crop safety) ([1]; Rate 150 g/ha): E (Fresh weight inhibition rate<20%)
- Echinochloa crusgalli, control efficacy grading (fresh weight inhibition rate) (Echinochloa crusgalli [2]): A (Fresh weight inhibition rate≥80% to 100%)
- Oryza sativa subsp. japonica, grading of fresh weight inhibition rate (crop safety) ([3]; Rate 150 g/ha): E (Fresh weight inhibition rate<20%)

SMILES: CC(C)[S+]([O-])c1c(S(C)(=O)=O)ccc(C(=O)Nc2ncnn2C)c1Cl (racemic) [Compound 2-7, 2-chloro-3-(isopropylsulfinyl)-N-(1-methyl-1H-1,2,4-triazol-5-yl)-4-(methylsulfonyl)benzamide]
- pest or weed control at 150 g/ha (Echinochloa crusgalli [4]; Echinochloa crus-galli, read-out: Control efficacy grade, Echinochloa crusgalli): 80 to 100%
- pest or weed control at 150 g/ha (Cyperus iria; Cyperus iria, read-out: Control efficacy grade, Cyperus iria): 80 to 100%
- pest or weed control at 150 g/ha (Leptochloa chinensis; Dinebra chinensis, read-out: Control efficacy grade, Leptochloa chinensis): 80 to 100%
- pest or weed control at 150 g/ha (Digitaria sanguinalis; Digitaria sanguinalis, read-out: Control efficacy grade, Digitaria sanguinalis): 80 to 100%
- pest or weed control at 150 g/ha (Eclipta prostrata; Eclipta prostrata, read-out: Control efficacy grade, Eclipta prostrata): 80 to 100%

SMILES: Cc1nnc(NC(=O)c2ccc(S(C)(=O)=O)c([S+]([O-])C3CCCC3)c2Cl)o1 (racemic) [Compound 3-88]
- Control efficacy grade, Echinochloa crusgalli (Echinochloa crusgalli [4]): A (Fresh weight inhibition rate≥80% to 100%)
- Control efficacy grade, Cyperus iria (Cyperus iria): A (Fresh weight inhibition rate≥80% to 100%)
- Control efficacy grade, Leptochloa chinensis (Leptochloa chinensis): A (Fresh weight inhibition rate≥80% to 100%)
- Control efficacy grade, Digitaria sanguinalis (Digitaria sanguinalis): A (Fresh weight inhibition rate≥80% to 100%)
- Control efficacy grade, Eclipta prostrata (Eclipta prostrata): A (Fresh weight inhibition rate≥80% to 100%)

SMILES: CCc1nnc(NC(=O)c2ccc(S(C)(=O)=O)c([S+]([O-])CC(C)C)c2Cl)o1 (racemic) [Compound 3-410]
- Control efficacy grade, Echinochloa crusgalli (Echinochloa crusgalli [4]): C (Fresh weight inhibition rate≥40% to <60%)
- Control efficacy grade, Cyperus iria (Cyperus iria): A (Fresh weight inhibition rate≥80% to 100%)
- Control efficacy grade, Leptochloa chinensis (Leptochloa chinensis): A (Fresh weight inhibition rate≥80% to 100%)
- Control efficacy grade, Digitaria sanguinalis (Digitaria sanguinalis): A (Fresh weight inhibition rate≥80% to 100%)
- Control efficacy grade, Eclipta prostrata (Eclipta prostrata): A (Fresh weight inhibition rate≥80% to 100%)
